Conditions in all cases: averaged IC50
The target of assay [1] is His-tagged recombinant human AXL cytoplasmic domain (Homo sapiens (Human), UniProt P30530). In words: AXL Enzyme Assay (LanthaScreen Eu Kinase Binding, TR-FRET). The gist of the method: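 LanthaScreen Eu kinase binding format, incubated 60 min at 22 °C and read by TR-FRET dual-wavelength emission ratio as percent of control. IC50 taken where a 4-parameter logistic fit crosses 50 POC.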
In general terms: Time-resolved FRET reads energy transfer from a long-lived donor to a nearby acceptor.

Assay [2] concerns the target His-tagged recombinant human MER cytoplasmic domain (Homo sapiens (Human), UniProt Q12866). In words: MER Enzyme Assay (LanthaScreen Eu Kinase Binding, TR-FRET). The gist of the method:
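LanthaScreen Eu kinase binding (tracer displacement) assay with His-tagged human MER cytoplasmic domain, 60 min incubation at 22 °C. TR-FRET dual-wavelength emission ratio converted to percent of control; IC50 is where the 4-parameter logistic fit crosses 50 POC.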

Assay [3] concerns the target GST-tagged recombinant human TYRO3 kinase domain (Homo sapiens (Human), UniProt Q06418). In words: TYRO3 Enzyme Assay (LanthaScreen Eu Kinase Binding, TR-FRET). A digest of the protocol:
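LanthaScreen Eu binding (tracer displacement) format read by TR-FRET after 60 min at 22 °C. Emission ratio converted to percent of control; IC50 taken where a 4-parameter logistic fit crosses 50 POC.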

Sequence of His-tagged recombinant human AXL cytoplasmic domain (P30530 473-894): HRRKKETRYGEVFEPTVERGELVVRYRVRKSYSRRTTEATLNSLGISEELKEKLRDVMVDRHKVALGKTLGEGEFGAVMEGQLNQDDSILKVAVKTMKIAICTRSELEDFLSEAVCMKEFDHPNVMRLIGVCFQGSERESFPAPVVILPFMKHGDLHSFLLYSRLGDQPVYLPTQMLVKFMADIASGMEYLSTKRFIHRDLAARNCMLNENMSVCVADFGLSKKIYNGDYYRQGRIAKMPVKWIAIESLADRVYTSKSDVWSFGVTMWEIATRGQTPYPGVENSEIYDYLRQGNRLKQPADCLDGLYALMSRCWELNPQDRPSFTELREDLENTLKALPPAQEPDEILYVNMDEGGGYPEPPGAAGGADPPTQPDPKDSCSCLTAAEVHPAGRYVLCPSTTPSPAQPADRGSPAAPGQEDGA
Sequence of His-tagged recombinant human MER cytoplasmic domain (Q12866 527-999): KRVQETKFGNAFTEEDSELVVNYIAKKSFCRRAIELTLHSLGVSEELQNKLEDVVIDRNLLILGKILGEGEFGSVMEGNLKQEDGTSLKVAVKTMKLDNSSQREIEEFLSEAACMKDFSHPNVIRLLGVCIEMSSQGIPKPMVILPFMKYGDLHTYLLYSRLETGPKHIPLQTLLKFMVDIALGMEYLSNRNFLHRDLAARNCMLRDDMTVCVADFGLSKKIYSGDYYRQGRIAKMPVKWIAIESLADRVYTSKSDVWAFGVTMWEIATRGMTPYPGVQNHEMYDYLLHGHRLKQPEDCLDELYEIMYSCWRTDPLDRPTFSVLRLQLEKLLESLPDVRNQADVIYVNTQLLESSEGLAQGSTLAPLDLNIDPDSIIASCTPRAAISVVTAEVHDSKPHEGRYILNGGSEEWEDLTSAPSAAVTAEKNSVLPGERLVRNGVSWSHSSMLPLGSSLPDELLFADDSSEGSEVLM
Sequence of GST-tagged recombinant human TYRO3 kinase domain (Q06418 518-790): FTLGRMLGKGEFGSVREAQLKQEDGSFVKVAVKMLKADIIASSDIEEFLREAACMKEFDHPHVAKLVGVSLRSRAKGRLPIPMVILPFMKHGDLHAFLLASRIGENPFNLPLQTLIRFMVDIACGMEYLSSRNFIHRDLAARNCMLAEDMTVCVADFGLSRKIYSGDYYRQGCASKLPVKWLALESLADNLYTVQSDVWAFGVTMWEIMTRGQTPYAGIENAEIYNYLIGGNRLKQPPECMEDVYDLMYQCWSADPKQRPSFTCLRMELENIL

In the case of `CNc1cc2c(cn1)c(-c1cnn(C(C)(C)CO)c1)nn2[C@H]1CC[C@@H](Oc2ccccc2F)CC1` [Example 395, 2-(4-(1-((1s,4s)-4-(2-fluorophenoxy)cyclohexyl)-6-(methylamino)-1H-pyrazolo[4,3-c]pyridin-3-yl)-1H-pyrazol-1-yl)-2-methylpropan-1-ol], the IC50 in assay [1] is under 10 nM; in assay [2], under 10 nM; in assay [3], 10 to 100 nM.

As for `CNc1cc2c(cn1)c(-c1cnn(CC(C)(C)O)c1)nn2[C@H]1CC[C@@H](Oc2ccccc2F)CC1` [Example 396, 1-(4-(1-((1s,4s)-4-(2-fluorophenoxy)cyclohexyl)-6-(methylamino)-1H-pyrazolo[4,3-c]pyridin-3-yl)-1H-pyrazol-1-yl)-2-methylpropan-2-ol], the IC50 in assay [1] is under 10 nM; in assay [2] it was under 10 nM; in assay [3] it was 10 to 100 nM.

As for `CNc1cc2c(cn1)c(-c1cnn([C@H]3CCNC[C@@H]3F)c1)nn2[C@H]1CC[C@@H](Oc2ccccc2F)CC1` [Example 399, 1-((1s,4R)-4-(2-fluorophenoxy)cyclohexyl)-3-(1-((3S,4S)-3-fluoropiperidin-4-yl)-1H-pyrazol-4-yl)-N-methyl-1H-pyrazolo[4,3-c]pyridin-6-amine], the IC50 is under 10 nM in assay [1], under 10 nM in assay [2] and 10 to 100 nM in assay [3].

In the case of `CNc1cc2c(cn1)c(-c1cnn(C(CO)CO)c1)nn2[C@H]1CC[C@@H](Oc2ccccc2F)CC1` [Example 408, 2-(4-(1-((1s,4s)-4-(2-fluorophenoxy)cyclohexyl)-6-(methylamino)-1H-pyrazolo[4,3-c]pyridin-3-yl)-1H-pyrazol-1-yl)propane-1,3-diol], the IC50 in assay [1] was under 10 nM; in assay [2], under 10 nM; in assay [3], 10 to 100 nM.

In the case of `CNc1cc2c(cn1)c(-c1cnn(C(CO)CO)c1)nn2[C@H]1CC[C@@H](Oc2cccc(F)c2)CC1` [Example 409, 2-(4-(1-((1s,4s)-4-(3-fluorophenoxy)cyclohexyl)-6-(methylamino)-1H-pyrazolo[4,3-c]pyridin-3-yl)-1H-pyrazol-1-yl)propane-1,3-diol], the IC50 in assay [1] was under 10 nM; in assay [2] it was under 10 nM; in assay [3] it was 10 to 100 nM.

With `CNc1cc2c(cn1)c(-c1cnn(C(CO)CO)c1)nn2[C@H]1CC[C@@H](Oc2ccc(F)cc2)CC1` [Example 410, 2-(4-(1-((1s,4s)-4-(4-fluorophenoxy)cyclohexyl)-6-(methylamino)-1H-pyrazolo[4,3-c]pyridin-3-yl)-1H-pyrazol-1-yl)propane-1,3-diol], the values for the IC50 in assay [1], in assay [2] and in assay [3] were under 10 nM, under 10 nM and 10 to 100 nM, respectively.

With `CCNc1cc2c(cn1)c(-c1cnn(C(CO)CO)c1)nn2[C@H]1CC[C@@H](Oc2ccc(F)cc2F)CC1` [Example 414, 2-(4-(1-((1s,4s)-4-(2,4-difluorophenoxy)cyclohexyl)-6-(ethylamino)-1H-pyrazolo[4,3-c]pyridin-3-yl)-1H-pyrazol-1-yl)propane-1,3-diol], the IC50 was under 10 nM in assay [1], under 10 nM in assay [2] and 10 to 100 nM in assay [3].

`CCNc1cc2c(cn1)c(-c1cnn(C(CO)CO)c1)nn2[C@H]1CC[C@@H](Oc2cccc(F)c2F)CC1` [Example 415, 2-(4-(1-((1s,4s)-4-(2,3-difluorophenoxy)cyclohexyl)-6-(ethylamino)-1H-pyrazolo[4,3-c]pyridin-3-yl)-1H-pyrazol-1-yl)propane-1,3-diol]: the IC50 in assay [1], in assay [2] and in assay [3] was under 10 nM throughout.

Turning to `CNc1cc2c(cn1)c(-c1cnn(C[C@@H](O)CO)c1)nn2[C@H]1CC[C@@H](Oc2ccccc2C(F)(F)F)CC1` [Example 419, (R)-3-(4-(6-(methylamino)-1-((1s,4S)-4-(2-(trifluoromethyl)phenoxy)-cyclohexyl)-1H-pyrazolo[4,3-c]pyridin-3-yl)-1H-pyrazol-1-yl)propane-1,2-diol], the IC50 in assay [1] is under 10 nM; in assay [2] it was under 10 nM; in assay [3] it was 10 to 100 nM.

Turning to `CCNc1cc2c(cn1)c(-c1cnn(C[C@@H](O)CO)c1)nn2[C@H]1CC[C@@H](Oc2cccc(Cl)c2)CC1` [Example 422], the IC50 in assay [1] is under 10 nM; in assay [2], under 10 nM; in assay [3], 10 to 100 nM.

`CCNc1cc2c(cn1)c(-c1cnn(C[C@@H](O)CO)c1)nn2[C@H]1CC[C@@H](Oc2ccc(F)cc2F)CC1` [Example 423, (R)-3-(4-(1-((1s,4S)-4-(2,4-difluorophenoxy)cyclohexyl)-6-(ethylamino)-1H-pyrazolo[4,3-c]pyridin-3-yl)-1H-pyrazol-1-yl)propane-1,2-diol]: the IC50 was under 10 nM in assay [1], under 10 nM in assay [2] and 10 to 100 nM in assay [3].

For the molecule `CCNc1cc2c(cn1)c(-c1cnn(C[C@@H](O)CO)c1)nn2[C@H]1CC[C@@H](Oc2cccc(F)c2F)CC1` [Example 429, (R)-3-(4-(1-((1s,4S)-4-(2,3-difluorophenoxy)cyclohexyl)-6-(ethylamino)-1H-pyrazolo[4,3-c]pyridin-3-yl)-1H-pyrazol-1-yl)propane-1,2-diol], the IC50 in assay [1], in assay [2] and in assay [3] was under 10 nM in each case.

Take `CCNc1cc2c(cn1)c(-c1cnn(CC(C)(O)CO)c1)nn2[C@H]1CC[C@@H](Oc2ccccc2F)CC1` (stereo partly drawn) [Example 431, 3-(4-(6-(ethylamino)-1-((1s,4s)-4-(2-fluorophenoxy)cyclohexyl)-1H-pyrazolo[4,3-c]pyridin 3-yl)-1H-pyrazol-1-yl)-2-methylpropane-1,2-diol]: the IC50 in assay [1] is under 10 nM; in assay [2], under 10 nM; in assay [3] it was 10 to 100 nM.

As for `CNc1cc2c(cn1)c(-c1cnn(C[C@@H](N)CO)c1)nn2[C@H]1CC[C@@H](Oc2ccccc2F)CC1` [Example 432, (R)-2-amino-3-(4-(1-((1s,4S)-4-(2-fluorophenoxy)cyclohexyl)-6-(methylamino)-1H-pyrazolo[4,3-c]pyridin-3-yl)-1H-pyrazol-1-yl)propan-1-ol], the IC50 in assay [1], in assay [2] and in assay [3] was under 10 nM each time.

Consider `CNc1cc2c(cn1)c(-c1cnn(C[C@H](N)CO)c1)nn2[C@H]1CC[C@@H](Oc2ccccc2F)CC1` [Example 433, (S)-2-amino-3-(4-(1-((1s,4S)-4-(2-fluorophenoxy)cyclohexyl)-6-(methylamino)-1H-pyrazolo[4,3-c]pyridin-3-yl)-1H-pyrazol-1-yl)propan-1-ol], for which the IC50 in assay [1], in assay [2] and in assay [3] was under 10 nM each time.

`CCNc1cc2c(cn1)c(-c1cnn(C[C@@H](O)CO)c1)nn2[C@H]1CC[C@@H](Oc2cccc(Cl)c2F)CC1` [Example 434, (R)-3-(4-(1-((1s,4S)-4-(3-chloro-2-fluorophenoxy)cyclohexyl)-6-(ethylamino)-1H-pyrazolo[4,3-c]pyridin-3-yl)-1H-pyrazol-1-yl)propane-1,2-diol]: the IC50 in assay [1], in assay [2] and in assay [3] was under 10 nM each time.

`CCNc1cc2c(cn1)c(-c1cnn(C[C@@H](O)CO)c1)nn2[C@H]1CC[C@@H](Oc2ccc(F)cc2Cl)CC1` [Example 436, (R)-3-(4-(1-((1s,4S)-4-(2-chloro-4-fluorophenoxy)cyclohexyl)-6-(ethylamino)-1H-pyrazolo[4,3-c]pyridin-3-yl)-1H-pyrazol-1-yl)propane-1,2-diol]: the results for the IC50 in assay [1], in assay [2] and in assay [3] were under 10 nM, under 10 nM and 10 to 100 nM, respectively.

`CCNc1cc2c(cn1)c(-c1cnn(C[C@@H](O)CO)c1)nn2[C@H]1CC[C@@H](Oc2cccc(F)c2Cl)CC1` [Example 437, (R)-3-(4-(1-((1s,4S)-4-(2-chloro-3-fluorophenoxy)cyclohexyl)-6-(ethylamino)-1H-pyrazolo[4,3-c]pyridin-3-yl)-1H-pyrazol-1-yl)propane-1,2-diol]: the IC50 in assay [1] is under 10 nM; in assay [2], under 10 nM; in assay [3], 10 to 100 nM.

As to `CCNc1cc2c(cn1)c(-c1cnn(C[C@@H](O)CO)c1)nn2[C@H]1CC[C@@H](Oc2cccc(Cl)c2Cl)CC1` [Example 439], the IC50 in assay [1] is under 10 nM; in assay [2], under 10 nM; in assay [3], 10 to 100 nM.

On to `CCNc1cc2c(cn1)c(-c1cnn(C[C@H](O)C(C)(C)O)c1)nn2[C@H]1CC[C@@H](Oc2ccccc2F)CC1` [Example 440, (S)-1-(4-(6-(ethylamino)-1-((1s,4R)-4-(2-fluorophenoxy)cyclohexyl)-1H-pyrazolo[4,3-c]pyridin-3-yl)-1H-pyrazol-1-yl)-3-methylbutane-2,3-dioI], for which the IC50 in assay [1] was under 10 nM; in assay [2], under 10 nM; in assay [3], 10 to 100 nM.

Take `CCNc1cc2c(cn1)c(-c1cnn(C[C@@H](O)C(C)(C)O)c1)nn2[C@H]1CC[C@@H](Oc2ccccc2F)CC1` [Example 442, (R)-1-(4-(6-(ethylamino)-1-((1s,4S)-4-(2-fluorophenoxy)cyclohexyl)-1H-pyrazolo[4,3-c]pyridin-3-yl)-1H-pyrazol-1-yl)-3-methylbutane-2,3-diol]: the results for the IC50 in assay [1], in assay [2] and in assay [3] were under 10 nM, under 10 nM and 10 to 100 nM, respectively.

`CCNc1cc2c(cn1)c(-c1cnn(C[C@H](O)CO)c1)nn2[C@H]1CC[C@@H](Oc2ccc(F)cc2F)CC1` [Example 444, (S)-3-(4-(1-((1s,4R)-4-(2,4-difluorophenoxy)cyclohexyl)-6-(ethylamino)-1H-pyrazolo[4,3-c]pyridin-3-yl)-1H-pyrazol-1-yl)propane-1,2-diol]: the results for the 50% inhibitory concentration (IC50) in assay [1], in assay [2] and in assay [3] were under 10 nM, under 10 nM and 10 to 100 nM, respectively.

As usually defined, the IC50 is the concentration that gives 50% inhibition.

The values above are taken from patent publication US11247990B1, “Bicyclic fused pyridine compounds as inhibitors of TAM kinases” (ARRAY BIOPHARMA INC., priority 2017, dated 2022).
